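Assay format: 96-well plates, 48-hour exposure. GI50 marks 50% less growth.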 The source made the active and inactive calls. Cut-off read from the data, not from the text of the source: active = GI50 up to about 1.1 µM and inactive = higher.
Columns and labels:
Experiment in all cases: DTP human tumour cell line panel, 48 h
[1] = tested on: Malme-3M
[2] = tested on: SW-620
[3] = tested on: NCI/ADR-RES
[4] = tested on: LOX IMVI
[5] = tested on: HT-29
[6] = tested on: HCT-116
[7] = tested on: SR
[8] = tested on: A498
[9] = tested on: TK-10
[10] = tested on: OVCAR-5
[11] = tested on: MDA-MB-435
[12] = tested on: KM12
[13] = tested on: 786-0
[14] = tested on: SK-MEL-5
[15] = tested on: SK-OV-3
[16] = tested on: MOLT-4
[17] = tested on: OVCAR-3
[18] = tested on: ACHN
[19] = tested on: HOP-62
[20] = tested on: SNB-19
[21] = tested on: HCC 2998
[22] = tested on: SF-268
[23] = tested on: MDA-MB-231
[24] = tested on: SN12C
[25] = tested on: M14
[26] = tested on: RXF 393
[27] = tested on: CAKI-1
[28] = tested on: SF-539
[29] = tested on: UO-31
[30] = tested on: OVCAR-8
[31] = tested on: UACC-62
[32] = tested on: RPMI-8226
[33] = tested on: A549
[34] = tested on: SK-MEL-28
[35] = tested on: IGROV-1
[36] = tested on: HL-60
[37] = tested on: DU-145
[38] = tested on: NCI-H522
[39] = tested on: OVCAR-4
[40] = tested on: SNB-75
[41] = tested on: UACC-257
[42] = tested on: Hs-578T
[43] = tested on: HCT-15
[44] = tested on: CCRF-CEM
[45] = tested on: HOP-92
[46] = tested on: MCF7
[47] = tested on: U-251
[48] = tested on: COLO 205
[49] = tested on: PC-3
[50] = tested on: SF-295
[51] = tested on: BT-549
[52] = tested on: NCI-H23
[53] = tested on: NCI-H460
[54] = tested on: MDA-N
[55] = tested on: NCI-H226
[56] = tested on: K562
[57] = tested on: EKVX

CCOC(=O)C1=C(C)OC(=O)[C@@]2(OC)C=C(Cl)[C@@]12C
GI50 [1]: > 100 µM (inactive) | GI50 [2]: > 100 µM (inactive) | GI50 [3]: > 100 µM (inactive) | GI50 [4]: > 100 µM (inactive) | GI50 [5]: > 100 µM (inactive) | GI50 [6]: > 100 µM (inactive) | GI50 [7]: > 100 µM (inactive) | GI50 [8]: > 100 µM (inactive) | GI50 [9]: > 100 µM (inactive) | GI50 [10]: > 100 µM (inactive) | GI50 [11]: > 100 µM (inactive) | GI50 [12]: > 100 µM (inactive) | GI50 [13]: > 100 µM (inactive) | GI50 [14]: > 100 µM (inactive) | GI50 [15]: > 100 µM (inactive) | GI50 [16]: > 100 µM (inactive) | GI50 [17]: > 100 µM (inactive) | GI50 [18]: > 100 µM (inactive) | GI50 [19]: > 100 µM (inactive) | GI50 [20]: > 100 µM (inactive) | GI50 [21]: > 100 µM (inactive) | GI50 [22]: > 100 µM (inactive) | GI50 [23]: > 100 µM (inactive) | GI50 [24]: > 100 µM (inactive) | GI50 [25]: > 100 µM (inactive) | GI50 [26]: > 100 µM (inactive) | GI50 [27]: > 100 µM (inactive) | GI50 [28]: > 100 µM (inactive) | GI50 [29]: > 100 µM (inactive) | GI50 [30]: > 100 µM (inactive) | GI50 [31]: > 100 µM (inactive) | GI50 [32]: > 100 µM (inactive) | GI50 [33]: > 100 µM (inactive) | GI50 [34]: > 100 µM (inactive) | GI50 [35]: > 100 µM (inactive) | GI50 [36]: 33 µM (inactive) | GI50 [37]: > 100 µM (inactive) | GI50 [38]: > 100 µM (inactive) | GI50 [39]: > 100 µM (inactive) | GI50 [40]: > 100 µM (inactive) | GI50 [41]: > 100 µM (inactive) | GI50 [42]: > 100 µM (inactive) | GI50 [43]: > 100 µM | GI50 [44]: > 100 µM (inactive) | GI50 [45]: > 100 µM (inactive) | GI50 [46]: > 100 µM (inactive) | GI50 [47]: > 100 µM (inactive) | GI50 [48]: > 100 µM (inactive) | GI50 [49]: > 100 µM (inactive) | GI50 [50]: > 100 µM (inactive) | GI50 [51]: > 100 µM (inactive) | GI50 [52]: > 100 µM (inactive) | GI50 [53]: > 100 µM (inactive) | GI50 [54]: > 100 µM (inactive) | GI50 [55]: > 100 µM (inactive) | GI50 [56]: > 100 µM (inactive) | GI50 [57]: > 100 µM (inactive)
